Consider 8 molecules from ChEMBL document CHEMBL3400005, “Thermodynamic equilibrium solubility measurements in simulated fluids by 96-well plate method in early drug discovery” (Bioorg Med Chem Lett, 2015).

Converted amounts (≈) assume the structure as drawn.

A word on the solubility (thermodynamic): it is the concentration in solution at equilibrium with solid.

For data set [1] the following is noted: buffer, 4 h.
The conditions of data set [2]: buffer, pH 7.4, 4 h.
Data set [3] can be described thus: physchem. The conditions noted are these: pH 1.2.
Data set [4] can be described thus: physchem. The settings on record: pH 6.8.
The nature of data set [5]: physchem.
Data set [6] in a line: physchem. The settings on record: pH 7.4.
A short description of data set [7]: physchem. The source holds these as a separate data set.
Data set [8] in a line: physchem. The conditions noted are these: pH 7.4. This is another data set of the same source.
A short description of data set [9]: physchem. The conditions noted are these: pH 1.2. The source holds these as a separate data set.
Data set [10] in a line: physchem. The settings on record: pH 6.8. This is another data set of the same source.
The nature of data set [11]: physchem. The source holds these as a separate data set.

`COc1cc2c(c(OC)c1OC)-c1ccc(OC)c(=O)cc1[C@@H](NC(C)=O)CC2` [COLCHICINE]: the entries for the “-log(solubility)” value in data set [1] and in [2] were 3.43 and 3.7, respectively. Besides, the solubility (thermodynamic) at 4 h in the data set “physchem [3]” (simulated gastric fluid) was 50.1 µM (≈ 20 µg/mL); in “physchem [4]” (simulated intestinal fluid) it was 200 µM (≈ 79.7 µg/mL).
For `COc1cc(/C=C/C(=O)CC(=O)/C=C/c2ccc(O)c(OC)c2)ccc1O` [CURCUMIN], the “-log(solubility)” value came out at 6.78. This molecule also gave a thermodynamic solubility at 4 h in “physchem [5]” (water) of 1.35 µM (≈ 0.497 µg/mL). Further, the thermodynamic solubility at 4 h in the data set “physchem [6]” (PBS) was 1.35 µM (≈ 0.497 µg/mL). The molecule further gave a solubility (thermodynamic) at 4 h in “physchem [3]” (simulated gastric fluid) of 1.35 µM (≈ 0.497 µg/mL). Besides, the solubility (thermodynamic) at 4 h in the data set “physchem [4]” (simulated intestinal fluid) was 1.35 µM (≈ 0.497 µg/mL).
As to `CC1(C)[C@@H](O)CC[C@]2(C)[C@H]3C(=O)C=C4[C@@H]5C[C@@](C)(C(=O)O)CC[C@]5(C)CC[C@@]4(C)[C@]3(C)CC[C@@H]12` [ENOXOLONE], the “-log(solubility)” value in data set [1] turned out to be 5.97; in [2], 5.67. The solubility (thermodynamic) at 4 h in the data set “physchem [3]” (simulated gastric fluid) and in the data set “physchem [4]” (simulated intestinal fluid) was 1.07 µM (≈ 0.504 µg/mL) each time.
For `OC(Cn1cncn1)(Cn1cncn1)c1ccc(F)cc1F` [FLUCONAZOLE], the solubility (thermodynamic) at 4 h is 0.324 µM (≈ 0.0991 µg/mL) in “physchem [5]” (water), 0.324 µM (≈ 0.0991 µg/mL) in “physchem [6]” (PBS), 1.62 µM (≈ 0.497 µg/mL) in “physchem [3]” (simulated gastric fluid) and 0.324 µM (≈ 0.0991 µg/mL) in the data set “physchem [4]” (simulated intestinal fluid). Besides, the solubility (thermodynamic) at 24 h in “physchem [7]” (water) is 0.537 µM (≈ 0.164 µg/mL); in “physchem [8]” (PBS), 0.468 µM (≈ 0.143 µg/mL); in the data set “physchem [9]” (simulated gastric fluid) it was 0.851 µM (≈ 0.261 µg/mL); in “physchem [10]” (simulated intestinal fluid), 0.891 µM (≈ 0.273 µg/mL). In “physchem [11]”, this molecule gave a solubility (thermodynamic) of 0.331 µM (≈ 0.101 µg/mL).
On to `CCC(=O)O[C@]1(C(=O)SCF)[C@H](C)C[C@H]2[C@@H]3C[C@H](F)C4=CC(=O)C=C[C@]4(C)[C@@]3(F)[C@@H](O)C[C@@]21C` [FLUTICASONE PROPIONATE], for which the solubility (thermodynamic) at 4 h is 0.2 µM (≈ 0.0999 µg/mL) in the data set “physchem [5]” (water), 0.2 µM (≈ 0.0999 µg/mL) in “physchem [6]” (PBS), 1 µM (≈ 0.501 µg/mL) in “physchem [3]” (simulated gastric fluid) and 1 µM (≈ 0.501 µg/mL) in “physchem [4]” (simulated intestinal fluid). Moreover, the thermodynamic solubility at 24 h is 0.0195 µM (≈ 0.00976 µg/mL) in “physchem [7]” (water), 0.01 µM (≈ 0.00501 µg/mL) in the data set “physchem [8]” (PBS), 0.2 µM (≈ 0.0999 µg/mL) in “physchem [9]” (simulated gastric fluid) and 0.407 µM (≈ 0.204 µg/mL) in “physchem [10]” (simulated intestinal fluid). This molecule showed a thermodynamic solubility in “physchem [11]” of 0.102 µM (≈ 0.0512 µg/mL).
`COc1c2occc2c(OC)c2c(=O)cc(C)oc12` [KHELLIN]: the solubility (thermodynamic) at 4 h is 77.6 µM (≈ 20.2 µg/mL) in “physchem [5]” (water), 77.6 µM (≈ 20.2 µg/mL) in “physchem [6]” (PBS), 30.9 µM (≈ 8.04 µg/mL) in “physchem [3]” (simulated gastric fluid) and 30.9 µM (≈ 8.04 µg/mL) in “physchem [4]” (simulated intestinal fluid). The thermodynamic solubility at 24 h in the data set “physchem [7]” (water) is 100 µM (≈ 26 µg/mL); in “physchem [8]” (PBS), 72.4 µM (≈ 18.9 µg/mL); in the data set “physchem [9]” (simulated gastric fluid), 97.7 µM (≈ 25.4 µg/mL); in the data set “physchem [10]” (simulated intestinal fluid), 58.9 µM (≈ 15.3 µg/mL). In “physchem [11]”, this molecule showed a solubility (thermodynamic) of 97.7 µM (≈ 25.4 µg/mL).
Turning to `Cc1cnc(NC(=O)C2=C(O)c3ccccc3S(=O)(=O)N2C)s1` [MELOXICAM], the solubility (thermodynamic) at 4 h in “physchem [5]” (buffer) is 11.5 µM (≈ 4.03 µg/mL); in “physchem [6]” (buffer) it was 35.5 µM (≈ 12.5 µg/mL); in the data set “physchem [3]” (simulated gi fluid), 1.41 µM (≈ 0.496 µg/mL); in the data set “physchem [4]” (simulated gi fluid), 22.9 µM (≈ 8.05 µg/mL). Besides, the thermodynamic solubility at 24 h in “physchem [7]” (buffer) was 11 µM (≈ 3.85 µg/mL); in “physchem [8]” (buffer) it was 21.9 µM (≈ 7.69 µg/mL); in the data set “physchem [9]” (simulated gi fluid), 0.0407 µM (≈ 0.0143 µg/mL); in the data set “physchem [10]” (simulated gi fluid), 28.8 µM (≈ 10.1 µg/mL). In the data set “physchem [11]”, this molecule had a solubility (thermodynamic) of 2.29 µM (≈ 0.805 µg/mL).
Take `COCCOC(=O)C1=C(C)NC(C)=C(C(=O)OC(C)C)C1c1cccc([N+](=O)[O-])c1` (stereo not drawn) [NIMODIPINE]: the “-log(solubility)” value in data set [2] was 6.62. For the same molecule, the results for the thermodynamic solubility at 4 h in the data set “physchem [5]” (water), in “physchem [3]” (simulated gastric fluid) and in “physchem [4]” (simulated intestinal fluid) were 4.79 µM (≈ 2 µg/mL), 9.55 µM (≈ 4 µg/mL) and 9.55 µM (≈ 4 µg/mL), respectively. Besides, the thermodynamic solubility at 24 h is 4.07 µM (≈ 1.7 µg/mL) in the data set “physchem [7]” (water), 0.398 µM (≈ 0.167 µg/mL) in “physchem [8]” (PBS), 10.7 µM (≈ 4.48 µg/mL) in the data set “physchem [9]” (simulated gastric fluid) and 10 µM (≈ 4.18 µg/mL) in “physchem [10]” (simulated intestinal fluid). The molecule further showed a thermodynamic solubility in “physchem [11]” of 5.75 µM (≈ 2.41 µg/mL).
